Read-outs that look alike come from different tables or passages of the source.
Columns and labels:
[1] = cited from earlier work
[2] = Crush strength of urea particles; assay type: physicochemical; settings: average strength of 20 particles
Protocol: The crush strength was determined by subjecting individual particles of urea to a measured force, applied by means of a metal plunger. The force, at which the particle fractures, was taken as a measure of strength. The average strength of 20 particles were reported.

[3] = SGN of granular product (product specifications); assay type: physicochemical; settings: average
[4] = Water, HCHO and biuret content of urea compositions by IR and/or HPLC; assay type: physicochemical; settings: average
Protocol: The water, HCHO, NBPT and biuret content of the urea compositions were analyzed by IR and/or HPLC. All concentrations were calculated in μg/ml unless otherwise noted. HPLC samples were prepared by weighing approximately 0.4 grams of sample into a 10-20 mL disposable glass vial or volumetric flask. For high concentration samples (>30% inhibitor), approximately 0.025 grams of sample was weighed into a 100 mL volumetric flask. For lower concentration samples, 10 mL of water was added and the sample was shaken until the sample was dissolved. For higher concentration samples, the sample was diluted to the 100 mL mark with diluent. A disposable dropper was used to transfer the sample into an autosampler vial. The sample was analyzed in duplicate including a diluent blank using the conditions below. The evaluation was carried out by the method of external standard with the calibration using a calibration line. A minimum of 2 sets of standards as set out below were run before and after unknowns. RSD is the relative deviation in rel. %, calculated from three repeats of sampling and two repeats of analysis of each sample (see EP 15688). […]
The chromatogram was evaluated at the wavelength of 214 nm. […]

Row | Structure (SMILES) | half-life of NBPT ([1]; NBPT injected into the melted urea before granulation) | half-life of NBPT ([1]; surface-treated urea) | Crush Strength [2] | SGN [3] | % HCHO [4]
1 | CCCCNP(N)(N)=S [NBPT, N-(n-butyl) thiophosphoric triamide] | more than one | about six | – | – | –
2 | NC(N)=O [Urea] | – | – | 7.5 lbs | 277.0 | <0.5%

— US9790136B2, “Urea and nitrogen stabilizer compositions and methods and systems of making and using thereof” (Koch Agronomic Services, LLC, priority 2013, dated 2017)
